Assay results reported in patent US20230365561A1, “BETA-LACTAMASE INHIBITORS AND THEIR PREPARATION” (NINGXIA ACADEMY OF AGRICUL TURE AND FORESTRY SCIENCES, priority 2020, published 2023).
Counter-ions that a name gives are not always drawn. Like-named read-outs stand apart in the source and are kept apart here.

How the values were obtained:
Assay type in all cases: cell-based
[1] = tested on: A. baumannii clinical isolate (strain 7); assay: MIC by broth microdilution (alone and in combination with meropenam), strain 7; conditions: Acinetobacter baumannii, compound alone
Procedure: (§1) Compounds of the present invention alone, meropenam (MER) alone, and as a combination with test antibiotic (meropenam) were tested for antimicrobial activity by determing minimum inhibitory concentration (MIC, mg/L) using the broth microdilution method according to the guidelines of the Clinical Laboratories and Stansards Insitute (“Methods for Dilution Antimicrobial Suscetibility Tests for Bacterial that Grow Aerobiclly”, Approved standard, […]., Clinical and Laboratories Stanards Institute (CLSI) Document M7-A8, Wayne, Pa., USA, 2009). Meropenam as a test antibiotic compound was dissolved in DMSO. Meropenam was then diluted in microbial growth medium (Mueller-Hinton Broth II, cation adjusted) resulting in a final concention range of 0.125-64 mg/L in serial two-fold dilution. In all cases the filnal DMSO concentraion was less than 0.5%. Bacteria were added to 96-well microtitre plates containing the serial two-fold dilutions of the compoumds; the final cell density was appoximately 5x10^5 colony forming units/mL (CFU/mL). Plates were incubated at 37° C. for 18-24 hours and read visually. The MIC, i.e. the lowest concentration of the test compound that inhibited visible growth of the bacteria, was recorded. The same assay conditions were used when the compounds of present invention alone, and as a combination with test meropenam antibiotic compound was tested for minmum inhibitory concentration (MIC, mg/L). Whileest meropenam was serially diluted as descrribed above, a constant concentration of the present invention of 4 µg/mL was used.
(§2) Bacterial strains that were used to evaluate the antimicrobial activity using the MIC determination included but were not limited to E. coli clinical isolate (strain 1), E. coli 8739 (strain 2), K. pneumoniae clinical isolate (strain 3), K. pneumoniae 700603 (strain 4), E. cloacae clinical isolate (strain 5), E. cloacae 700323 (strain 6), A. baumannii clinical isolate (strain 7), A. baumannii 19606 (strain 8), P. aeruginosa clinical isolate (strain 9), P. aeruginosa 9027 (strain 10).

[2] = tested on: P. aeruginosa clinical isolate (strain 9); assay: MIC by broth microdilution (alone and in combination with meropenam), strain 9; conditions: Pseudomonas aeruginosa, compound alone
Procedure: as §1, §2

[3] = tested on: A. baumannii 19606 (strain 8); assay: MIC by broth microdilution (alone and in combination with meropenam), strain 8; conditions: Acinetobacter baumannii, compound alone
Procedure: as §1, §2

[4] = tested on: K. pneumoniae 700603 (strain 4); assay: MIC by broth microdilution (alone and in combination with meropenam), strain 4; conditions: Klebsiella pneumoniae, compound alone
Procedure: as §1, §2

[5] = tested on: E. coli clinical isolate (strain 1); assay: MIC by broth microdilution (alone and in combination with meropenam), strain 1; conditions: Escherichia coli, compound alone
Procedure: as §1, §2

[6] = tested on: E. cloacae 700323 (strain 6); assay: MIC by broth microdilution (alone and in combination with meropenam), strain 6; conditions: Enterobacter cloacae, compound alone
Procedure: as §1, §2

[7] = tested on: K. pneumoniae clinical isolate (strain 3); assay: MIC by broth microdilution (alone and in combination with meropenam), strain 3; conditions: Klebsiella pneumoniae, compound alone
Procedure: as §1, §2

E. coli 8739 (strain 2) = assay: MIC by broth microdilution (alone and in combination with meropenam), strain 2; conditions: Escherichia coli, compound alone
Procedure: as §1, §2

[8] = tested on: E. cloacae clinical isolate (strain 5); assay: MIC by broth microdilution (alone and in combination with meropenam), strain 5; conditions: Enterobacter cloacae, compound alone
Procedure: as §1, §2

[9] = tested on: P. aeruginosa 9027 (strain 10); assay: MIC by broth microdilution (alone and in combination with meropenam), strain 10; conditions: Pseudomonas aeruginosa, compound alone
Procedure: as §1, §2

[10] = read-out: MIC, antibacterial activity of example alone

Row | MIC [1, 10] [µg/mL] | MIC [2, 10] [µg/mL] | MIC [3, 10] [µg/mL] | MIC [4, 10] [µg/mL] | MIC [5, 10] [µg/mL] | MIC [6, 10] [µg/mL] | MIC [7, 10] [µg/mL] | MIC (E. coli 8739 (strain 2); [10]) [µg/mL] | MIC [8, 10] [µg/mL] | MIC [9, 10] [µg/mL] | MIC ([1]; read-out: MIC) [µg/mL] | MIC ([2]; read-out: MIC) [µg/mL] | MIC ([3]; read-out: MIC) [µg/mL] | MIC ([4]; read-out: MIC) [µg/mL] | MIC ([5]; read-out: MIC) [µg/mL] | MIC ([6]; read-out: MIC) [µg/mL] | MIC ([7]; read-out: MIC) [µg/mL] | MIC (E. coli 8739 (strain 2); read-out: MIC) [µg/mL] | MIC ([8]; read-out: MIC) [µg/mL] | MIC ([9]; read-out: MIC) [µg/mL] | Compound
1 | > 64 | > 64 | > 64 | > 64 | > 64 | > 64 | > 64 | > 64 | > 64 | > 64 |  |  |  |  |  |  |  |  |  |  | N=C(NC(=O)c1nc(-c2ccccc2)cs1)[C@@H]1CC[C@@H]2CN1C(=O)N2OS(=O)(=O)[O-].[Na+] [Ex.44, Sodium (2S,5R)-7-oxo-2-(N-(4-phenylthiazole-2-carbonyl)carbamimidoyl)-1,6-diazabicyclo[3.2.1]octan-6-yl Sulfate]
2 | > 64 | > 64 | > 64 | > 64 | > 64 | > 64 | > 64 | > 64 | > 64 | > 64 |  |  |  |  |  |  |  |  |  |  | CC(=O)N1CCC(C(=O)NC(=N)[C@@H]2CC[C@@H]3CN2C(=O)N3OS(=O)(=O)[O-])CC1.[Na+] [Ex.4, Sodium (2S,5R)-2-(N-(1-acetylpiperidine-4-carbonyl)carbamimidoyl)-7-oxo-1,6-diazabicyclo[3.2.1]octan-6-yl Sulfate]
3 |  |  |  |  |  |  |  |  |  |  | > 64 | > 64 | > 64 | > 64 | > 64 | > 64 | > 64 | > 64 | > 64 | > 64 | N=C(NC(=O)c1ccncn1)[C@@H]1CC[C@@H]2CN1C(=O)N2OS(=O)(=O)[O-].[Na+] [Ex.48, Sodium (2S,5R)-7-oxo-2-(N-(pyrimidine-4-carbonyl)carbamimidoyl)-1,6-diazabicyclo[3.2.1]octan-6-yl Sulfate]
4 | > 64 | > 64 | > 64 | > 64 | > 64 | > 64 | > 64 | > 64 | > 64 | > 64 |  |  |  |  |  |  |  |  |  |  | CCC(=O)NC(=N)[C@@H]1CC[C@@H]2CN1C(=O)N2OS(=O)(=O)[O-].[Na+] [Ex.3, Sodium (2S,5R)-7-oxo-2-(N-propionylcarbamimidoyl)-1,6-diazabicyclo[3.2.1]octan-6-yl Sulfate]
5 | > 64 | > 64 | > 64 | > 64 | > 64 | > 64 | > 64 | > 64 | > 64 | > 64 |  |  |  |  |  |  |  |  |  |  | CC(=O)N1CCC[C@@H](C(=O)NC(=N)[C@@H]2CC[C@@H]3CN2C(=O)N3OS(=O)(=O)[O-])C1.[Na+] [Ex.27, Sodium (2S,5R)-2-(N-((R)-1-acetylpiperidine-3-carbonyl)carbamimidoyl)-7-oxo-1,6-diazabicyclo[3.2.1]octan-6-yl Sulfate]
6 | > 64 | > 64 | > 64 | > 64 | > 64 | > 64 | > 64 | > 64 | > 64 | > 64 |  |  |  |  |  |  |  |  |  |  | CC(=O)N1CCC[C@H](C(=O)NC(=N)[C@@H]2CC[C@@H]3CN2C(=O)N3OS(=O)(=O)[O-])C1.[Na+] [Ex.26, Sodium (2S,5R)-2-(N-((S)-1-acetylpiperidine-3-carbonyl)carbamimidoyl)-7-oxo-1,6-diazabicyclo[3.2.1]octan-6-yl Sulfate]
7 | > 64 | > 64 | > 64 | > 64 | > 64 | > 64 | > 64 | > 64 | > 64 | > 64 |  |  |  |  |  |  |  |  |  |  | N=C(NC(=O)c1ccc(C(F)(F)F)nc1)[C@@H]1CC[C@@H]2CN1C(=O)N2OS(=O)(=O)[O-].[Na+] [Ex.6, Sodium (2S,5R)-7-oxo-2-(N-(6-(trifluoromethyl)nicotinoyl)carbamimidoyl)-1,6-diazabicyclo[3.2.1]octan-6-yl Sulfate]
8 | > 64 | > 64 | > 64 | > 64 | > 64 | > 64 | > 64 | > 64 | > 64 | > 64 |  |  |  |  |  |  |  |  |  |  | CC(=O)NCCC(=O)NC(=N)[C@@H]1CC[C@@H]2CN1C(=O)N2OS(=O)(=O)[O-].[Na+] [Ex.19, Sodium (2S,5R)-2-(N-(3-acetamidopropanoyl)carbamimidoyl)-7-oxo-1,6-diazabicyclo[3.2.1]octan-6-yl Sulfate]
9 | > 64 | > 64 | > 64 | > 64 | > 64 | > 64 | > 64 | > 64 | > 64 | > 64 |  |  |  |  |  |  |  |  |  |  | N=C(NC(=O)Cn1ccnc1)[C@@H]1CC[C@@H]2CN1C(=O)N2OS(=O)(=O)[O-].[Na+] [Ex.39, Sodium (2S,5R)-2-(N-(2-(1H-imidazol-1-yl)acetyl)carbamimidoyl)-7-oxo-1,6-diazabicyclo[3.2.1]octan-6-yl Sulfate]
10 | > 64 | > 64 | > 64 | > 64 | > 64 | > 64 | > 64 | > 64 | > 64 | > 64 |  |  |  |  |  |  |  |  |  |  | N=C(NC(=O)Cc1ncccn1)[C@@H]1CC[C@@H]2CN1C(=O)N2OS(=O)(=O)[O-].[Na+] [Ex.25, Sodium (2S,5R)-7-oxo-2-(N-(2-(pyrimidin-2-yl)acetyl)carbamimidoyl)-1,6-diazabicyclo[3.2.1]octan-6-yl Sulfate]
11 | > 64 | > 64 | > 64 | > 64 | > 64 | > 64 | > 64 | > 64 | > 64 | > 64 |  |  |  |  |  |  |  |  |  |  | N=C(NC(=O)C1CCCCC1)[C@@H]1CC[C@@H]2CN1C(=O)N2OS(=O)(=O)[O-].[Na+] [Ex.37, Sodium (2S,5R)-2-(N-(cyclohexanecarbonyl)carbamimidoyl)-7-oxo-1,6-diazabicyclo[3.2.1]octan-6-yl Sulfate]
12 |  |  |  |  |  |  |  |  |  |  | > 64 | > 64 | > 64 | > 64 | > 64 | > 64 | > 64 | > 64 | > 64 | > 64 | N=C(N)NOCCCC(=O)NC(=N)[C@@H]1CC[C@@H]2CN1C(=O)N2OS(=O)(=O)O [Ex.47, (2S,5R)-2-(N-(4-(guanidinooxy)butanoyl)carbamimidoyl)-7-oxo-1,6-diazabicyclo[3.2.1]octan-6-yl Hydrogen Sulfate]
13 | > 64 | > 64 | > 64 | > 64 | > 64 | > 64 | > 64 | > 64 | > 64 | > 64 |  |  |  |  |  |  |  |  |  |  | N=C(NC(=O)C1CCNCC1)[C@@H]1CC[C@@H]2CN1C(=O)N2OS(=O)(=O)[O-].[Na+] [Ex.18, Sodium (2S,5R)-7-oxo-2-(N-(piperidine-4-carbonyl)carbamimidoyl)-1,6-diazabicyclo[3.2.1]octan-6-yl Sulfate]
14 | > 64 | > 64 | > 64 | > 64 | > 64 | > 64 | > 64 | > 64 | > 64 | > 64 |  |  |  |  |  |  |  |  |  |  | N=C(NC(=O)c1cncnc1)[C@@H]1CC[C@@H]2CN1C(=O)N2OS(=O)(=O)O [Ex.10, Sodium (2S,5R)-7-oxo-2-(N-(pyrimidine-5-carbonyl)carbamimidoyl)-1,6-diazabicyclo[3.2.1]octan-6-yl Sulfate]
15 | > 64 | > 64 | > 64 | > 64 | > 64 | > 64 | > 64 | > 64 | > 64 | > 64 |  |  |  |  |  |  |  |  |  |  | N=C(NC(=O)c1cccnc1)[C@@H]1CC[C@@H]2CN1C(=O)N2OS(=O)(=O)O [Ex.5, (2S,5R)-2-(N-nicotinoylcarbamimidoyl)-7-oxo-1,6-diazabicyclo[3.2.1]octan-6-yl Hydrogen Sulfate]
